# Test results: patent US10052330B2, “Substituted pyrido[3,4-b]pyrazines as Syk inhibitors” (HUTCHISON MEDIPHARMA LIMITED, priority 2011, dated 2018)
# Read-outs that look alike come from different tables or passages of the source.
# Tests used:
# RBL-2H3 cells = assay: IgE-induced Beta-hexosaminidase secretion in RBL-2H3 cells; format: cell-based; conditions: Rattus norvegicus
# Syk kinase = Syk kinase (Homo sapiens, UniProt P43405); assay: Syk kinase enzymatic assay (Kit-Tyr 2 Peptide); format: biochemical
# [1] = RBL-2H3, RBL-2H3 cells sensitized with SPE-7, stimulated with DNP-BSA, upper bound of each range is 'less than', read-out: IC50, IgE-induced Beta-hexosaminidase secretion
# [2] = 8 concentrations, 1 μM down to 0.0003 μM, upper bound of each range is 'less than', read-out: IC50: Enzymatic Activity (Syk kinase)
SMILES,IC50 (RBL-2H3 cells; [1]),IC50 (Syk kinase; [2]),"IC50 (RBL-2H3 cells; RBL-2H3, read-out: IC50, IgE-induced Beta-hexosaminidase secretion)",IC50 (Syk kinase)
OCCn1cc(-c2cc3nccnc3c(NCC3CNCCC3(F)F)n2)cn1 (stereo not drawn) [Compound 315],1 to 100 nM,1 to 100 nM,–,–
CC(=O)N1CCN(c2ccc(-c3cc4nccnc4c(NCC4CNCCC4(F)F)n3)cn2)CC1 (stereo not drawn) [Compound 316],1 to 100 nM,1 to 100 nM,–,–
CC(=O)N1CCN(c2ccc(-c3cc4nccnc4c(NCC4CNCCC4(F)F)n3)cc2F)CC1 (stereo not drawn) [Compound 318],1 to 100 nM,1 to 100 nM,–,–
CC(=O)N1CCC(n2cc(-c3cc4nccnc4c(NCC4CNCCC4(F)F)n3)cn2)CC1 (stereo not drawn) [Compound 320],1 to 100 nM,1 to 100 nM,–,–
CS(=O)(=O)N1CCC(n2cc(-c3cc4nccnc4c(NCC4CNCCC4(F)F)n3)cn2)CC1 (stereo not drawn) [Compound 321],1 to 100 nM,1 to 100 nM,–,–
O=C(C1CC1)N1CCO[C@H](CNc2nc(-c3ccc(N4CCOCC4)cc3)cc3nccnc23)C1 [Compound 322],100 to 1000 nM,1 to 100 nM,–,–
O=C(C(F)F)N1CCO[C@H](CNc2nc(-c3ccc(N4CCOCC4)cc3)cc3nccnc23)C1 [Compound 323],1 to 100 nM,1 to 100 nM,–,–
N#CCC(=O)N1CCO[C@H](CNc2nc(-c3ccc(N4CCOCC4)cc3)cc3nccnc23)C1 [Compound 324],1 to 100 nM,1 to 100 nM,–,–
CS(=O)(=O)N1CCO[C@H](CNc2nc(-c3ccc(N4CCOCC4)cc3)cc3nccnc23)C1 [Compound 332],1 to 100 nM,1 to 100 nM,–,–
NS(=O)(=O)N1CCO[C@H](CNc2nc(-c3ccc(N4CCOCC4)cc3)cc3nccnc23)C1 [Compound 333],1 to 100 nM,1 to 100 nM,–,–
O=C(CF)N1CCO[C@H](CNc2nc(-c3ccc(N4CCOCC4)cc3)cc3nccnc23)C1 [Compound 340],–,–,1 to 100 nM,1 to 100 nM
CCS(=O)(=O)N1CCO[C@H](CNc2nc(-c3ccc(N4CCOCC4)cc3)cc3nccnc23)C1 [Compound 346],1 to 100 nM,1 to 100 nM,–,–
NC(=O)N1CCO[C@H](CNc2nc(-c3ccc(N4CCOCC4)cc3)cc3nccnc23)C1 [Compound 347],1 to 100 nM,1 to 100 nM,–,–
CS(=O)(=O)N1CCN(c2ccc(-c3cc4nccnc4c(N4CC[C@H](CO)C4)n3)cc2)CC1 [Compound 362],1 to 100 nM,1 to 100 nM,–,–
"Fc1cc(-c2cc3nccnc3c(NC[C@@H]3CNCCC3(F)F)n2)ccc1N1CCOCC1 [Compound 368, (S)—N-((4,4-difluoropiperidin-3-yl)methyl)-7-(3-fluoro-4-morpholinophenyl) pyrido[4,3-b]pyrazin-5-amine]",1 to 100 nM,1 to 100 nM,–,–
"Cc1cc(-c2cc3nccnc3c(NC[C@@H]3CNCCC3(F)F)n2)ccc1N1CCOCC1 [Compound 370, (S)—N-((4,4-difluoropiperidin-3-yl)methyl)-7-(3-methyl-4-morpholinophenyl) pyrido[4,3-b]pyrazin-5-amine]",1 to 100 nM,1 to 100 nM,–,–
"Cc1cc(-c2cc3nccnc3c(NC[C@H]3CNCCC3(F)F)n2)ccc1N1CCOCC1 [Compound 371, (R)—N-((4,4-difluoropiperidin-3-yl)methyl)-7-(3-methyl-4-morpholinophenyl)pyrido[4,3-b]pyrazin-5-amine]",1 to 100 nM,1 to 100 nM,–,–
"CN1CCN(c2ccc(-c3cc4nccnc4c(NC[C@@H]4CNCCC4(F)F)n3)cc2)CC1 [Compound 372, (S)—N-((4,4-difluoropiperidin-3-yl)methyl)-7-(4-(4-methylpiperazin-1-yl)phenyl)pyrido[4,3-b]pyrazin-5-amine]",100 to 1000 nM,1 to 100 nM,–,–
"CN1CCN(c2ccc(-c3cc4nccnc4c(NC[C@H]4CNCCC4(F)F)n3)cc2)CC1 [Compound 373, (R)—N-((4,4-difluoropiperidin-3-yl)methyl)-7-(4-(4-methylpiperazin-1-yl)phenyl)pyrido[4,3-b]pyrazin-5-amine]",100 to 1000 nM,100 to 1000 nM,–,–
"FC1(F)CCNC[C@H]1CNc1nc(-c2ccc(N3CCOCC3)nc2)cc2nccnc12 [Compound 374, (S)—N-((4,4-difluoropiperidin-3-yl)methyl)-7-(6-morpholinopyridin-3-yl)pyrido[4,3-b]pyrazin-5-amine]",1 to 100 nM,1 to 100 nM,–,–
"F[C@@]1(CNc2nc(-c3ccc(N4CCOCC4)cc3)cc3nccnc23)CCCNC1 [Compound 376, (S)—N-((3-fluoropiperidin-3-yl)methyl)-7-(4-morpholinophenyl)pyrido[4,3-b]pyrazin-5-amine]",1 to 100 nM,1 to 100 nM,–,–
